Assay: xn = mol fraction of the nth substance listed
Conditions: 101.3 kPa, Liquid, Vibrating tube method

CCCCn1cc[n+](C)c1.F[P-](F)(F)(F)(F)F [1-butyl-3-methylimidazolium hexafluorophosphate] + O
mass density [kg/m3]
Conditions	x2 = 0	x2 = 0.0431	x2 = 0.0982	x2 = 0.1222	x2 = 0.1566	x2 = 0.1873	x2 = 0.2548	x2 = 0.2971
298.15 K	1368.3	1366.5	1363.5	1362.1	1360.1	1358.5	1355.5	1354.1
323.15 K	1347.7	1345.6	1342.2	1340.6	1338.5	1336.4	1332.3	1329.9

CCCC[n+]1ccn(C)c1.O=S(=O)([N-]S(=O)(=O)C(F)(F)F)C(F)(F)F + O
mass density [kg/m3]
Conditions	298.2 K	323.21 K
x2 = 0	1437.1	1413.8
x2 = 0.0308	1435.7	–
x2 = 0.0482	–	1411.8
x2 = 0.0753	1434	–
x2 = 0.0816	–	1410.5
x2 = 0.119	–	1408.8
x2 = 0.1194	1432.2	–
x2 = 0.1597	–	1407.1
x2 = 0.1731	1430	–
x2 = 0.2141	–	1404.5
x2 = 0.2391	1426.7	–
x2 = 0.2583	–	1402

CCn1cc[n+](C)c1.O=S(=O)([N-]S(=O)(=O)C(F)(F)F)C(F)(F)F + O
mass density [kg/m3]
Conditions	298.19 K	323.17 K
x2 = 0	1519.3	1494.7
x2 = 0.0209	1518.3	–
x2 = 0.0353	–	1493.1
x2 = 0.0499	1516.9	–
x2 = 0.0581	–	1492
x2 = 0.0631	1516.2	–
x2 = 0.0834	–	1490.6
x2 = 0.1164	–	1488.7
x2 = 0.1205	1513	–
x2 = 0.1608	1510.7	–
x2 = 0.1611	–	1486.2
x2 = 0.2032	1508.1	–
x2 = 0.2221	–	1482.4
x2 = 0.3025	1501.3	–

CCCC[N+](C)(C)C.O=S(=O)([N-]S(=O)(=O)C(F)(F)F)C(F)(F)F [butyltrimethylammonium bis(trifluoromethylsulfonyl)imide] + O
mass density [kg/m3]
Conditions	x2 = 0	x2 = 0.0387	x2 = 0.0765	x2 = 0.1132	x2 = 0.14	x2 = 0.189	x2 = 0.2108	x2 = 0.2322
293.15 K	1399.5	1398.4	1397	1395.3	1394.1	1392.4	1391.8	1391.2
298.15 K	1395	1393.9	1392.5	1390.8	1389.5	1387.8	1387.2	1386.6
303.15 K	1390.5	1389.4	1388	1386.3	1385	1383.2	1382.5	1381.8
308.15 K	1386.1	1384.9	1383.5	1381.9	1380.6	1378.7	1377.8	1377.1
313.15 K	1381.6	1380.5	1379	1377.4	1376.1	1374.1	1373.2	1372.4
318.15 K	1377.1	1376	1374.6	1372.9	1371.6	1369.6	1368.7	1367.8
323.15 K	1372.6	1371.5	1370	1368.4	1367.1	1365.1	1364.1	1363.2
328.15 K	1368.2	1367	1365.5	1363.9	1362.6	1360.5	1359.5	1358.5
333.15 K	1363.7	1362.4	1360.9	1359.3	1358	1355.8	1354.8	1353.7
338.15 K	1359.2	1357.9	1356.3	1354.7	1353.3	1351.1	1350	1348.7
343.15 K	1354.8	1353.4	1351.8	1350.2	1348.7	1346.4	1345.1	1343.8

O [water] + CCOS(=O)(=O)[O-].CCn1cc[n+](C)c1
x1 = 1
Conditions	mass density [kg/m3]
318.15 K	990.1
323.15 K	988
328.15 K	985.7
333.15 K	983.2
338.15 K	980.5
343.15 K	977.8

CCCC[N+]1(C)CCCC1.O=S(=O)([N-]S(=O)(=O)C(F)(F)F)C(F)(F)F + O
mass density [kg/m3]
Conditions	298.21 K	323.21 K
x2 = 0	1395.3	1373.6
x2 = 0.0298	–	1372.5
x2 = 0.0435	1394	–
x2 = 0.0654	1393.2	–
x2 = 0.0673	–	1371.1
x2 = 0.086	1392.3	–
x2 = 0.0913	1392.1	–
x2 = 0.1012	–	1369.9
x2 = 0.1262	1390.7	–
x2 = 0.1396	1390.1	–
x2 = 0.1406	–	1368.3
x2 = 0.1909	1388.1	–
x2 = 0.2033	–	1365.3
x2 = 0.2228	1387.1	–

CCCCn1cc[n+](C)c1.F[B-](F)(F)F [1-butyl-3-methylimidazolium tetrafluoroborate] + O
mass density [kg/m3]
Conditions	x2 = 0	x2 = 0.0895	x2 = 0.195	x2 = 0.308	x2 = 0.4996	x2 = 0.75	x2 = 0.899
298.15 K	1201.1	1198.3	1194.4	1189.3	1177.8	1147.9	1100.7
303.15 K	1197.4	1194.6	1190.9	1185.8	1173.9	1143.8	1097.2
333.15 K	1175.4	1172.8	1169	1163.9	1151.5	1121	1076.4

Reference: the NIST ThermoML archive (doi:10.1016/j.jct.2009.05.009)
